Measured values: the RepoRT retention time repository (doi:10.3390/metabo9050085)

assay: Phenomenex Kinetex C18, 150 × 2.1 mm, 1.7 µm, 30 °C, 0.3 mL/min; A: water + 0.1% formic acid; B: acetonitrile + 0.1% formic acid; gradient (min/%B) 0/2 14/100 17/100 17/2 25/2; settings: stereoisomer not certain

| SMILES | LC retention time [min] |
| --- | --- |
| CC12CCC(O)CC1=CCC1C2CCC2(C)C(O)C(=O)CC12 (stereo not given) | 8.03 |
| CC12CCC3C(CCC4=CC(=O)CCC43C=O)C1CCC2O (stereo not given) | 8.59 |
| CC(=O)C1(O)CCC2C3CC=C4CC(O)CCC4(C)C3CCC21C (stereo not given) | 10.7 |
| CC12CCC3C4=CC(=O)C(=O)C=C4CCC3C1CCC2O (stereo not given) | 7.58 |
| CC12CCC(O)C=C1CCC1C2CCC2(C)C(O)CCC12 (stereo not given) | 9.76 |
| CC12CCC(O)CC1CCC1C2C(=O)CC2(C)C1CCC2(O)C(=O)CO (stereo not given) | 8.38 |
| CC(O)C1(O)CCC2C3CCC4CC(O)CCC4(C)C3C(=O)CC21C (stereo not given) | 8.66 |
| CC12CCC3C(C(O)CC4CC(O)CCC43C)C1CC(O)C2 (stereo not given) | 7.39 |
| CC12CCC3C(C(=O)CC4CC(O)CCC43C)C1CCC2=O (stereo not given) | 8 |
| CC(CCC(=O)O)C1CCC2C3CCC4CCCCC4(C)C3CC(O)C12C (stereo not given) | 16.7 |
| CC12CCC(O)CC1=CCC1C2CCC2(C)C(O)CCC12 (stereo not given) | 10.8 |
| CC(O)C1(O)CCC2C3CCC4=CC(=O)CCC4(C)C3CCC21C (stereo not given) | 9.92 |
| CC12CCC3C(CC(O)C4CC(O)CCC43C)C1CCC2O (stereo not given) | 8.18 |
| CC12CCC(=O)C=C1CC(O)C1C2CCC2(C)C(O)CCC12 (stereo not given) | 7.06 |
| CC12CCC(=O)C=C1CCC1C2CCC2(C)C(O)CC(O)C12 (stereo not given) | 6.97 |
| CC12CC(O)C3C(CCC4=CC(=O)CCC43C)C1CCC2=O (stereo not given) | 8.87 |
| CC12CCC(O)CC1=CC(O)C1C2CCC2(C)C(O)CCC12 (stereo not given) | 7.81 |
| CC(C(=O)O)C1CCC2C3C(O)CC4CC(O)CCC4(C)C3CC(O)C12C (stereo not given) | 8.37 |
| CC12CCC3C(CCC4=CC(=O)CCC43C=O)C1CCC2=O (stereo not given) | 9.42 |
| CC(O)C1CCC2C3CCC4=CC(=O)CCC4(C)C3CCC12C (stereo not given) | 12 |
| CC12CCC3c4ccc(O)c(O)c4CCC3C1CCC2O (stereo not given) | 7.61 |
| CC12CCCC1C1CCC3CC(O)CCC3(C)C1CC2 (stereo not given) | 12.9 |

| SMILES | LC retention time [min] |
| --- | --- |
| CC12CCC(O)CC1CCC1C2C(=O)CC2(CO)C(C(=O)CO)CCC12 (stereo not given) | 7.57 |
| CC12CCC3C(CCC4=CC(=O)CCC43CO)C1CCC2O (stereo not given) | 7.3 |
| CC12CCC3C(CCC4=CC(=O)CCC43C)C1CCC2=O (stereo not given) | 10.8 |
| CC12CCC(=O)C=C1CCC1C2CCC2(C)C(OS(=O)(=O)O)CCC12 (stereo not given) | 9.81 |
| CC12C=CC(=O)CC1CCC1C2CCC2(C)C(O)CCC12 (stereo not given) | 9.97 |
| CC12CCC3C(CC=C4CC(OS(=O)(=O)O)CCC43C)C1CCC2=O (stereo not given) | 9.91 |
| CC12CCC(O)CC1CCC1C2CCC2(C)C(C(=O)CO)CCC12 (stereo not given) | 11.3 |
| CC12CCCC1C1CC(O)C3(O)CC(O)CCC3(C)C1CC2 (stereo not given) | 10.5 |
| CC12CCC(=O)CC1CCC1C2CCC2(C)C(OS(=O)(=O)O)CCC12 (stereo not given) | 10.6 |
| CC12CCC3C(C(O)CC4CC(O)CCC43C)C1CCC2=O (stereo not given) | 8.74 |
| CC12CCC3C(CCC4=CC(=O)CCC43C)C1CC(O)C2=O (stereo not given) | 8.39 |
| CC12CCC3C4CCC(=O)CC4CCC3C1CCC2O (stereo not given) | 9.72 |
| CC12CCC3C(CCC4=CC(=O)CCC43CO)C1CCC2=O (stereo not given) | 7.72 |
| CC12CCC(O)CC1CCC1C2C2CC3(C(O)O2)C(C(=O)CO)CCC13 (stereo not given) | 7.18 |
| CC12CCC3C(CC=C4CC(=O)CCC43C)C1CCC2=O (stereo not given) | 11 |
| CC12CCC(O)CC1CCC1C2CCC2(C)C1CCC2(O)C(=O)CO (stereo not given) | 10.1 |
| CC12CCC(=O)C=C1CCC1C2C(O)CC2(C)C(O)CCC12 (stereo not given) | 8.2 |
| CC12CCC3C(C(O)CC4=CC(=O)CCC43C)C1CCC2=O (stereo not given) | 7.78 |
| CC12CCC(O)CC1CCC1C2C(O)CC2(C=O)C(C(=O)CO)CCC12 (stereo not given) | 7.76 |
| CC(O)C1(O)CCC2C3CCC4CC(O)CCC4(C)C3CCC21C (stereo not given) | 11 |
| CC12CC(=O)C3C(CCC4=CC(=O)CCC43C)C1CCC2=O (stereo not given) | 8.68 |
| CC12CCC3C(CCC4CC(OS(=O)(=O)O)CCC43C)C1CCC2=O (stereo not given) | 10.5 |

Other lines, results leading:

| LC retention time [min] | SMILES |
| --- | --- |
| 11.3 | COc1cc2c(cc1O)CCC1C2CCC2(C)C(=O)CCC12 (stereo not given) |
| 12.7 | CC(=O)C1=CCC2C3CCC4=CC(=O)CCC4(C)C3CCC12C (stereo not given) |
| 9.26 | COc1cc2c(cc1O)C1CCC3(C)C(O)CCC3C1CC2 (stereo not given) |
| 13 | CC(=O)C1CCC2C3CC=C4CC(O)CCC4(C)C3CCC12C (stereo not given) |
| 7.73 | CC12CCC3c4ccc(OS(=O)(=O)O)c(O)c4CCC3C1CCC2=O (stereo not given) |
| 8.15 | CC12CCC(O)CC1=CCC1C2C(O)CC2(C)C1CCC2(O)C(=O)CO (stereo not given) |
| 8.53 | CC12CCC(=O)C=C1CCC1C2C(=O)CC2(C)C(C(=O)CO)CCC12 (stereo not given) |
| 7.97 | CC12CCC(=O)CC1CCC1C2C(O)CC2(C=O)C(C(=O)CO)CCC12 (stereo not given) |
| 9.87 | CC(=O)C1C(O)CC2C3CC=C4CC(O)CCC4(C)C3CCC21C (stereo not given) |
| 10.7 | CC12CCC3c4ccc(O)cc4CCC3C1CCC2=O (stereo not given) |
| 10 | CC12CCC(=O)C=C1CCC1C2CCC2(C)C1CCC2(O)CCO (stereo not given) |
| 9.04 | CC12CCC(=O)C=C1CCC1C2CCC2(C)C1CCC2(O)C(=O)CO (stereo not given) |
| 9.08 | CC(=O)C1C(O)CC2C3CCC4=CC(=O)CCC4(C)C3CCC21C (stereo not given) |
| 7.86 | CC12CCC3c4cc(O)c(O)cc4CCC3C1CCC2O (stereo not given) |
| 11.6 | CC12CCC(=O)CC1CCC1C2CCC2(C)C(C(=O)CO)CCC12 (stereo not given) |
| 7.81 | CC12CCC3C4=C(CCC3C1CCC2O)C(=O)C(=O)C=C4 (stereo not given) |
| 8.1 | CC12CCC(=O)C=C1CCC1C2C(O)CC2(C)C(C(=O)C(=O)O)CCC12 (stereo not given) |
| 9.74 | COc1c(O)ccc2c1CCC1C2CCC2(C)C(=O)CCC12 (stereo not given) |
| 7.15 | CC12CCC(=O)C=C1CCC1C2C(O)CC2(C=O)C(C(=O)CO)CCC12 (stereo not given) |

| LC retention time [min] | SMILES |
| --- | --- |
| 7.7 | CC12CCC3c4ccc(O)cc4CCC3C1C(O)CC2=O (stereo not given) |
| 7.1 | O=CC12CC(O)C3C4CCC(=O)C=C4CCC3C1CCC2C(=O)CO (stereo not given) |
| 7.34 | CC12CCC(=O)C=C1CCC1C2C(O)CC2(CO)C(C(=O)CO)CCC12 (stereo not given) |
| 6.59 | CC12CCC3c4ccc(O)cc4C(=O)CC3C1CC(O)C2O (stereo not given) |
| 8.44 | CC12CCC(O)CC1=CCC1C2CCC2(C)C1CCC2(O)C(=O)CO (stereo not given) |
| 9.06 | CC12CC(=O)C3C(CCC4CC(O)CCC43C)C1CCC2C(=O)CO (stereo not given) |
| 6.31 | CC12CCC(O)CC1CCC1C2CC(O)C2(C)CCC(O)C12 (stereo not given) |
| 11.5 | COc1cc2c(cc1OC)C1CCC3(C)C(O)CCC3C1CC2 (stereo not given) |
| 10.9 | CC(=O)C1(O)CCC2C3CCC4=CC(=O)CCC4(C)C3CCC21C (stereo not given) |
| 7.75 | CC12CCC(=O)C=C1CCC1C2C(=O)CC2(C)C1CCC2(O)C(=O)CO (stereo not given) |
| 8.81 | CC12CCC(=O)C=C1CCC1C2C(O)CC2(C)C(C(=O)CO)CCC12 (stereo not given) |
| 8.65 | CC12CCC3c4ccc(OS(=O)(=O)O)cc4CCC3C1CCC2=O (stereo not given) |
| 11.9 | CC12C=CCC1C1CCC3CC(O)CCC3(C)C1CC2 (stereo not given) |
| 15.8 | CC(CCC(=O)O)C1CCC2C3CC=C4CC(O)CCC4(C)C3CCC12C (stereo not given) |
| 6.76 | CC12CCC(=O)C=C1CCC1C2C(O)CC2(C=O)C1CCC2(O)C(=O)CO (stereo not given) |
| 7.97 | CC12CCC3c4ccc(O)cc4C(O)CC3C1CCC2=O (stereo not given) |
| 8.07 | CC12CCC3c4cc(O)c(O)cc4CCC3C1CCC2=O (stereo not given) |
| 7.82 | CC12CCC3c4ccc(O)cc4CCC3C1CC(=O)C2=O (stereo not given) |
| 8.89 | CC12CCC3C(CCC4=CC(=O)CCC43C=O)C1CCC2C(=O)CO (stereo not given) |

| LC retention time [min] | SMILES |
| --- | --- |
| 10.5 | COc1cc2c(cc1O)CCC1C2CCC2(C)C(O)CCC12 (stereo not given) |
| 10.5 | CC12CCC(=O)C=C1CCC1C2CCC2(C)C(C(=O)CO)CCC12 (stereo not given) |
| 11.6 | CC(=O)C1CCC2C3=CC=C4CC(O)CCC4(C)C3CCC12C (stereo not given) |
| 12.9 | CC(=O)C1CCC2C3CCC4=CC(=O)CCC4(C)C3CCC12C (stereo not given) |
| 10.5 | CC12CCC(O)CC1=CCC1C2CCC2(C)C(C(=O)CO)CCC12 (stereo not given) |
| 9.83 | COc1cc2c(cc1O)C1CCC3(C)C(=O)CCC3C1CC2 (stereo not given) |
| 9.18 | CC12CCC(=O)C=C1CCC1C2C(O)CC2(C)C(C(=O)CC(=O)O)CCC12 (stereo not given) |
| 8.8 | CC(=O)C1(O)CCC2C3CCC4=CC(=O)CCC4(C)C3C(O)CC21C (stereo not given) |
| 7.01 | CC12CCC3c4ccc(O)cc4C(O)CC3C1CCC2O (stereo not given) |
| 7.61 | CC12CCC(=O)C=C1CCC1C2C(O)CC2(C)C1CCC2(O)C(=O)CO (stereo not given) |
| 13.9 | CC(O)C1CCC2C3CCC4CC(=O)CCC4(C)C3CCC12C (stereo not given) |
| 8.03 | CC12CCC3C(CCC4=CC(=O)CCC43C(=O)O)C1CCC2C(=O)CO (stereo not given) |
| 7.15 | CC12CCC3c4ccc(O)cc4CC(O)C3C1CCC2O (stereo not given) |
| 8.93 | CC(=O)C1CCC2C3C(O)C=C4CC(O)CCC4(C)C3CCC12C (stereo not given) |
| 8.54 | CC12CC(=O)C3C(CCC4CC(O)CCC43C)C1CCC2C(O)CO (stereo not given) |
| 7.33 | CC12CCC3c4ccc(O)cc4CCC3C1C(O)CC2O (stereo not given) |
| 6.52 | CC12CCC(=O)C=C1CCC1C2C(O)CC2(CO)C1CCC2(O)C(=O)CO (stereo not given) |
| 8.06 | CC12CCC3c4ccc(O)c(O)c4CCC3C1CCC2=O (stereo not given) |
